Experimental findings from patent publication US4707487A, “(4-imidazolyl)piperidines, the preparation thereof and their application in therapy” (Institut National de la Sante et de la Recherche Medicale …, priority 1985, dated 1987) are described below.

The term pKi denotes the negative decadic logarithm of the Ki, by convention in mol/L. For orientation: LD50 means the dose at which mortality reaches 50%. In general, inhibition refers to how much of the control response was suppressed.

pKi: −log10 of the molar value.

Series [1] has as its system rate of renewal of histamine in the synaptosomal fraction (P2) of rat cerebral cortex. Kind of series: Effects of H3 antagonists on the rate of renewal of cerebral histamine (depletion after synthesis blocking with α-FMH). It is filed as in vivo, rat (male). Details: Depletion by α-FMH: unit not given beside the values. How it is done:
III. EFFECTS OF H3 A[…] THE RATE OF RENEWAL OF CEREBRAL HISTAMINE
Male rats weighing from 80 to 100 g simultaneously receive intraperitoneally α-fluoromethyl histidine and the compound to be tested, each at a dose of 20 mg/kg. One hour later, the animals are sacrificed and the cerebral cortex rapidly removed and homogenized in 10 volumes of 0.32 M sucrose. The homogenate thereby obtained is subjected to two successive centrifugations, the first at 10^4 g.min and second at 2×10^5 g.min to sediment the fraction enriched in synaptosomes (Whittaker, Michaelson and Kirkland, Biochem. J., 1967, 90, 293-305). After resuspension of this fraction in 10 volumes of 20 mM phosphate (K2 /K) buffer, PH 7.8, and treatment with ultrasound, an aliquot portion is frozen for subsequent assay of histidine decarboxylase activity (Baudry, Martres and Schwartz, J. Neurochem., 21, 1301-1309, 1973), and another portion is heated for 10 minutes at 95° C. and then centrifuged at 10^4 g.min. The endogenous histamine is determined in the supernatant by a radioenzymatic assay, which enables the histamine to be converted to tritiated N^w methylhistamine by means of an enzyme purified from rat kidney, histamine N-methyltransferase, and a tritiated methyl radical donor, S-adenosylmethionine. The N^w -methylhistamine thereby formed is selectively extracted in an alkaline medium into chloroform, before measurement of the tritiated product by liquid scintillation (Taylor and Snyder, J. Pharmacol. Exp. Ther., 137, 619-633, 1971).
In the controls, these rates correspond to 15 ng/g/h, compared with approximately 30 ng/g/h after treatment with an H3 -receptor antagonist (Table 3).

The target of series [2] is T1, H3 self-receptors of rat brain (Rattus norvegicus, UniProt Q9QYN8). Nature of the series: Antagonism of histamine stimulation of the H3 receptors controlling the release of (3H)histamine induced by depolarization of sections of rat brain.
From the text: (§1) The method described by Arrang et al., (Nature 1983, 302: 838-837) is used on sections (0.3 mm thick) of cerebral cortex of male Wistar rats (180-200 g) (IFFA-CREDO, France).
Series [3] has as its target T1, H3 self-receptors of rat brain. Nature of the series: cell-based.
From the text: as §1
Series [4] in a line: Acute toxicity: mortality in mice after a single administration of increasing doses. As to conditions: mouse, in vivo, after one hour. As to the method:
The determination of mortality in mice is observed folowing a single intravenous administration of increasing doses of compounds to be tested.
The L.D.50 for all the compounds studied is […] 100 mg/kg […]. For example, that for the derivative No. 1 is 100 mg/kg after one hour.

Series [5] relates to rate of renewal of histamine in the synaptosomal fraction (P2) of rat cerebral cortex. Kind of series: Effects of H3 antagonists on the rate of renewal of cerebral histamine (depletion after synthesis blocking with α-FMH). Format: in vivo, rat (male). The arrangement: Depletion by α-FMH: unit not given beside the values. This is another data set of the same source.
[6] abbreviates: α-FMH 20 mg/kg + test compound 20 mg/kg.
Where [7] appears, read: α-FMH 20 mg/kg + test compound 20 mg/kg, * p < 0.01 with respect to α-FMH alone.
[8] abbreviates: α-FMH 20 mg/kg + test compound 20 mg/kg, where marked *** p < 0.05 with respect to α-FMH.
The mark [9] stands for this setting: α-FMH 20 mg/kg + test compound 2 mg/kg.
[10] abbreviates: α-FMH alone 20 mg/kg, i.p., 1 h, rat cerebral cortex.
Setting [11] is: read-out: Apparent dissociation constant (Ki) as antagonist of histamine on the H3 self-receptors of rat brain.

T1 sequence (Q9QYN8 whole entry): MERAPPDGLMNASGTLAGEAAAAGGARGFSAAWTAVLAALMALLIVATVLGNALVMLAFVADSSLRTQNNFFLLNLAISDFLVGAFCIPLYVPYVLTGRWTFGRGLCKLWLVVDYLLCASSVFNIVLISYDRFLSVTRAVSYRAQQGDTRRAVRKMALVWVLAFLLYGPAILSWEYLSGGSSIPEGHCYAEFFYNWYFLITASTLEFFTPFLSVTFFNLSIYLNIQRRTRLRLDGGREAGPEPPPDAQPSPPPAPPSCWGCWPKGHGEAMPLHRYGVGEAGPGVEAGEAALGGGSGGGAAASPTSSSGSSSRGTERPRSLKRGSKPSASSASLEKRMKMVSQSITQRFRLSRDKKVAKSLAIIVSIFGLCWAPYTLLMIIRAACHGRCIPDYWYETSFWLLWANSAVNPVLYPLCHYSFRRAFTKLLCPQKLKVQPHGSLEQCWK

Consider `O=C(NC1CCCCC1)N1CCC(c2c[nH]cn2)CC1` [Example 3], for which the “Depletion by α-FMH, change (in brackets)” value in series [1] (setting [6]) is reported as “+84%”. In addition, the “Histamine (level in the synaptosomal fraction P2)” value in series [1] (setting [7]) stood at 24.9 ± 1.2. Further, in series [1] (setting [8]), the “Depletion by α-FMH” value is given as 26.7 ± 3.2. In addition, the pKi in series [2] is 7.39.

In series [2], `O=C(NC1CCCCC1)N1CCC(c2cn(C(=O)NC3CCCCC3)cn2)CC1` [Example 2] gave a pKi of 7.59.

`S=C(NC12CC3CC(CC(C3)C1)C2)N1CCC(c2c[nH]cn2)CC1` [Example 7] had a pKi in series [3] of 7.52.

In series [4], `S=C(NC1CCCCC1)N1CCC(c2c[nH]cn2)CC1` [Example 1] yielded an LD50 at 1 h of 100 mg/kg. Also, the “Depletion by α-FMH, change (in brackets)” value in series [1] (setting [6]) is reported as “+74%”; in series [5] (setting [9]), “+96%”. Also, the “Histamine (level in the synaptosomal fraction P2)” value was found to be 26.4 ± 1.4 in series [1] (setting [7]); 39.3 ± 2.1 in series [5] (test compound alone 20 mg/kg, no α-FMH, ** p < 0.03 with the untreated animals); 23.2 ± 2.7 in series [5] (α-FMH 20 mg/kg + test compound 2 mg/kg, * p < 0.01 with respect to α-FMH alone). Besides, the “Depletion by α-FMH” value in series [1] (setting [8]) came out at 25.2 ± 3.3; in series [5] (test compound alone 20 mg/kg, no α-FMH), 12.3 ± 3.7; in series [5] (setting [9]), 28.4 ± 4.0. The “histamine level in the synaptosomal fraction” value in series [5] (administered alone at a dose of 20 mg/kg) is on record as “significant fall in the histamine level in the synaptosomal fraction”. Besides, the pKi in series [3] is 8.30.

As for `Cc1[nH]cnc1C1CCN(CCCn2c(=O)[nH]c3ccccc32)CC1` [Example 39], in series [3], the pKi is 6.30.

With `NCCc1c[nH]cn1` [histamine, reference compound], the inhibition at 1 µM in series [2] (read-out: inhibition of (3H)histamine release by exogenous histamine) was around 60%.

The molecule `Cc1cccc(NC(=O)N2CCC(c3cn(C(=O)Nc4cccc(C)c4)cn3)CC2)c1` [Example 16] gave a pKi in series [3] of 7.08.

In the case of `Cc1cccc(NC(=O)N2CCC(c3c[nH]cn3)CC2)c1` [Example 11], in series [3], the pKi was 7.28.

For the molecule `O=C(Nc1cccc(F)c1)N1CCC(c2c[nH]cn2)CC1` [Example 10], the pKi in series [3] was 7.64.

On to `O=C(Nc1ccccc1)N1CCC(c2c[nH]cn2)CC1` [Example 9], for which, in series [3], the pKi is 6.77.

`CC(NC(=O)N1CCC(c2c[nH]cn2)CC1)c1ccccc1` (stereo not shown) [Example 56]: the pKi in series [3] was 8.00.

On to `c1ccc(OCCN2CCC(c3c[nH]cn3)CC2)cc1` [Example 40], for which, in series [2], the pKi was 7.17.

Turning to `N[C@@](CF)(Cc1c[nH]cn1)C(=O)O` [α-FMH, α-fluoromethylhistidine, reference compound], in series [1] (setting [10]), the “Depletion by α-FMH” value was determined as 14.5 ± 4.0 and the “Histamine (level in the synaptosomal fraction P2)” value is listed as 37.1 ± 2.7.

`CC(NC(=O)N1CCC(c2cn(C(=O)NC(C)c3ccccc3)cn2)CC1)c1ccccc1` (stereo not shown) [Example 20] gave a negative logarithm of the Ki (pKi) in series [3] of 7.66.

As to `CC(NC(=N)N1CCC(c2c[nH]cn2)CC1)C1CC1` (stereo not shown) [Example 57], the pKi in series [2] (setting [11]) was 7.92.

Turning to `S=C(NC1CCCCC1)N1CCCC(c2c[nH]cn2)C1` (stereo not shown) [Example 58], the pKi in series [2] (setting [11]) was 7.40.

In series [2], `O=C(c1ccc(N2CCC(c3c[nH]cn3)CC2)cc1)C1CC1` [Example 4] gave a pKi of 7.43.
